Experimental data reported in US20240068008A1, “RNase for Improved Microbial Detection and Antimicrobial Susceptibility Testing” (MicrobeDX Inc., priority 2016, published 2024).

Legend:
Escherichia coli = experiment: AST with and without RNase, rRNA levels relative to control at 60 or 90 minutes; format: cell-based; details: susceptible E. coli isolates, 60 or 90 minutes at 37° C., RNase added to the growth medium
Procedure: Similar results have been observed for other Gram-negative bacteria such as Kiebsiella pneumoniae, Proteus mirabilis, and Pseudomonas aeruginosa using the same conditions and RNase concentrations as for E. coli.
Susceptible (S) and resistant (R) E. coli isolates were incubated in growth medium with ampicillin for 60 or 90 minutes at 37° C. with (+) and without (−) RNase.
Susceptible (S) and resistant (R) E. coli isolates were incubated in growth medium with cefazolin for 60 or 90 minutes at 37° C. with (+) and without (−) 1 μg/ml RNase.
Susceptible (S) and resistant (R) E. coli isolates were incubated in growth medium with ceftriaxone for 60 or 90 minutes at 37° C. with (+) and without (−) RNase.

K. pneumoniae = experiment: as above; format: cell-based; details: susceptible K. pneumoniae isolates, 60 or 90 minutes at 37° C., RNase added to the growth medium
Procedure: Susceptible (S) and resistant (R) K. pneumoniae isolates were incubated in growth medium with cefepime for 60 or 90 minutes at 37° C. with (+) and without (−) 1 μg/ml RNase.
Susceptible (S) and resistant (R) K. pneumoniae isolates were incubated in growth medium with ceftriaxone for 60 or 90 minutes at 37° C. with (+) and without (−) RNase.

Row | Structure (SMILES) | rRNA levels relative to control (growth medium without antibiotic) (Escherichia coli) | rRNA levels relative to control (growth medium without antibiotic) (K. pneumoniae)
1 | CC1(C)S[C@@H]2[C@H](NC(=O)[C@H](N)c3ccccc3)C(=O)N2[C@H]1C(=O)O [ampicillin] | significant reduction in rRNA | 
2 | Cc1nnc(SCC2=C(C(=O)O)N3C(=O)[C@@H](NC(=O)Cn4cnnn4)[C@H]3SC2)s1 [cefazolin] | significant reduction in rRNA | 
3 | CO/N=C(\C(=O)N[C@@H]1C(=O)N2C(C(=O)[O-])=C(C[N+]3(C)CCCC3)CS[C@H]12)c1csc(N)n1 [cefepime] |  | significant reduction in rRNA
4 | CO/N=C(\C(=O)N[C@@H]1C(=O)N2C(C(=O)O)=C(CSc3nc(=O)c(=O)[nH]n3C)CS[C@H]12)c1csc(N)n1 [ceftriaxone] | significant reduction in rRNA | significant reduction in rRNA
